The subject of test [1] is rat aortas. The experiment in a line: Anti-vasoconstrictive activity in physiological medium: contraction of rat aortas induced by potassium depolarisation. More on the design: species or system WISTAR rats. Conditions: 0.25 h, hyperpotassic medium (80 mM KCl, 37 mM NaCl), cumulative concentrations every 15 minutes, 37° C., read-out: Concentration inhibiting by 50% (IC50) the contraction of rat aortas induced by potassium depolarisation. As to the method: (§1) The studies are carried out on rings, having a length of 3 mm, of aortas removed from WISTAR rats (325-375 g) which have been anaesthetised with sodium pentobarbital (30 mg/kg i.p.); or of aortas removed from New Zealand rabbits (1.8-2 kg) which have likewise been anaesthetised with sodium pentobarbital (30 mg/kg i.p.).
(§2) The vascular rings are immersed in a physiological solution, normal or calcium-free (+0.2 mM of EGTA chelator), which is kept at a temperature of 37° C. and aerated with a mixture of 95% O2 +5% CO2. The rings are connected to a STATHAM (UC2-GOULD) tension sensor. The optimum tensions for each vessel are applied and a stabilisation period of 90 minutes for the specimens is observed.
Table (T1) summarises the IC50s obtained with the compounds of the Examples representing the compounds of the invention, with regard to the contraction of rat aortas induced by a hyperpotassic medium.

For test [2], the system named is rabbit aortas. The experiment in a line: Anti-vasoconstrictive activity in calcium-free medium: contraction of rabbit aortas induced by noradrenaline. More on the design: species or system New Zealand rabbits. Conditions: Oryctolagus cuniculus, 0.5 h, 30 minutes incubation, noradrenaline 10^-6 M, calcium-free (+0.2 mM EGTA); for inhibition at 1 µM: 10^-6 M compound; for inhibition at 0.1 µM: 10^-7 M compound. How it is done: as §1, §2
The inhibitory effect of a concentration of the compounds of the invention incubated for 30 minutes, with regard to vascular contraction induced by nonadrenaline (10^-6 M), is tested.

Test [3] concerns left auricle of guinea-pigs. Nature of the test: Effect on the toxic effects of ouabain on the left auricle of guinea-pigs. Conditions: compound 10^-5 M, ouabain 10^-6 M; for % contracture: percentage of the initial contraction developed. How it is done: The left auricles are removed from guinea-pigs (350-450 g) which have been anaesthetised with sodium pentobarbital (30 mg/kg). The auricles are attached to a STATHAM (UC2-GOULD) tension sensor and the initial tension applied is 0.5 grammes. The auricles are stimulated electrically at 1 Hz by means of platinum electrodes.
Toxic effect is achieved by the addition of ouabain (10^-6 M). The test compounds are added 15 minutes prior to the addition of the toxic agent.

Test [4] concerns isolated rat's heart. Nature of the test: Protective effect on an isolated rat's heart subjected to hypoxia-reoxygenation. More on the design: species or system WISTAR rats. The following applies: compound 8·10^-7 M, solvent H2O; for % PVG at 30 min DE REOXYGENATION: 30 min reoxygenation after 60 min hypoxia. How it is done:
The heart is removed from WISTAR rats (325-375 g). The heart is perfused rapidly according to the technique of LANGENDORFF at a constant pressure of 76 mmHg and is stimulated electrically at 5 Hz.
The heart is subjected to hypoxia for 60 minutes, which is effected by the administration of a gaseous mixture of 95% N2 +5% CO2 during that period, and is followed by reoxygenation for 30 minutes.
The test compounds are incubated for 15 minutes prior to and for the duration of the hypoxia.
The isovolumetric contractions are recorded by means of a polyethylene balloon connected to a pressure sensor (P23-GOULD) introduced into the left ventricle and inflated so as to obtain a diastolic pressure of between 5 and 10 mm of mercury.

Consider five compounds from US5298503A, “N-(isoquinolin-5-ylsulphonyl) azacycloalkanes” (Adir et Compagnie, priority 1991, dated 1994).

Each structure is given as a SMILES string. pIC50: −log10 of the molar value. Where a name gives a salt, the structure may show the parent alone.

The inhibition is the drop in the measured response relative to a control, in per cent.

As for `CN(CCCCOc1ccc(F)cc1)C1CCN(S(=O)(=O)c2cccc3cnccc23)CC1` [Example 1, Fumarate of 1-(isoquinolin-5-ylsulphonyl)-4-{N-methyl-N-[4-(p-fluorophenoxy)butyl]amino}piperidine], the pIC50 in test [1] is 5.04. For the same compound, the inhibition at 1 µM in test [2] came out at 62%. In addition, the “% contraction” value in test [3] (10 min, solvent DMSO) amounted to 254.7 ± 22%; in test [3] (30 min, solvent DMSO) it was 260.6 ± 29%; in test [3] (60 min, solvent DMSO), 253.6 ± 26%. Also, the “% contracture” value in test [3] (15 min, solvent DMSO) is reported as 0%; in test [3] (30 min, solvent DMSO), 0%; in test [3] (60 min, solvent DMSO), 4 ± 4%.
On to `CN(CCCC(=O)c1ccc(F)cc1)C1CCN(S(=O)(=O)c2cccc3cnccc23)CC1` [Example 2, Dihydrochloride of 1-(isoquinolin-5-ylsulphonyl)-4-{N-methyl-N-[4-oxo-4-(p-fluorophenyl)butyl]amino}piperidine], for which the pIC50 in test [1] is 5.48. Besides, in test [2], the inhibition at 1 µM came out at 86% and the inhibition at 0.1 µM stood at 50%. Moreover, the “% contraction” value in test [3] (10 min, solvent H2O) is 184.0 ± 17.3%. Further, in test [3] (15 min, solvent H2O), the “% contracture” value came out at 1.4 ± 1.4%. Besides, in test [3] (30 min, solvent H2O), the “% contraction” value came to 138.8 ± 34.9% and the “% contracture” value is 10.5 ± 4.7%. For the same compound, in test [3] (60 min, solvent H2O), the “% contraction” value was determined as 112.2 ± 31.0% and the “% contracture” value was found to be 33.5 ± 16.4%. For the same compound, in test [4], the “Contracture amplitude at 15 min reoxygenation” value came to 5.5 ± 4.3 mmHg, the “% PVG at 30 min DE REOXYGENATION” value is given as 95.0 ± 1.9% and the “Contracture amplitude at 30 min reoxygenation” value was 0.5 ± 0.5 mmHg.
Turning to `CN(CCCOc1ccc(F)cc1)CC1CCN(S(=O)(=O)c2cccc3cnccc23)CC1` [Example 3, Fumarate of 1-(isoquinolin-5-ylsulphonyl)-4-{{N-methyl-N-[3-(p-fluorophenoxy)propyl]amino}methyl}piperidine], the pIC50 in test [1] was 5.82. For the same compound, in test [2], the inhibition at 1 µM stood at 82% and the inhibition at 0.1 µM was determined as 43%. Further, the “% contraction” value in test [3] (10 min, solvent H2O) was found to be 183.3 ± 20.7%. In test [3] (15 min, solvent H2O), the “% contracture” value amounted to 0.9 ± 0.9%. Further, in test [3] (30 min, solvent H2O), the “% contraction” value was found to be 155.4 ± 15.0% and the “% contracture” value is recorded as 7.7 ± 1.5%. In test [3] (60 min, solvent H2O), the “% contraction” value is given as 130.7 ± 34.5% and the “% contracture” value was 21.8 ± 6.2%. In test [4], the “Contracture amplitude at 15 min reoxygenation” value was determined as 9.6 ± 2.4 mmHg, the “% PVG at 30 min DE REOXYGENATION” value worked out at 85.4 ± 5.8% and the “Contracture amplitude at 30 min reoxygenation” value was determined as 1.6 ± 1.0 mmHg.
`CN(CCCCCOc1ccc(F)cc1)C1CCN(S(=O)(=O)c2cccc3cnccc23)CC1` [Example 4, Fumarate of 1-(isoquinolin-5-ylsulphonyl)-4 {N-methyl N-[5-(p-fluorophenoxy)pentyl]amino}piperidine]: the “% contraction” value in test [3] (10 min, solvent DMSO) is 213.9 ± 22%; in test [3] (30 min, solvent DMSO), 208.6 ± 22%; in test [3] (60 min, solvent DMSO), 211.1 ± 30%. For the same compound, the “% contracture” value is listed as 0% in test [3] (15 min, solvent DMSO); 0% in test [3] (30 min, solvent DMSO); 0% in test [3] (60 min, solvent DMSO).
For the compound `CN(CCCC(=O)c1ccc(F)cc1)CC1CCN(S(=O)(=O)c2cccc3cnccc23)CC1` [Example 5, Dihydrochloride of 1-(isoquinolin-5-ylsulphonyl)-4-{N-methyl-N-[4-(p-fluorophenyl)-4-oxobutyl]aminomethyl}piperidine], the “% contraction” value in test [3] (10 min, solvent H2O) is 206.1 ± 21%; in test [3] (30 min, solvent H2O), 186.1 ± 21.2%; in test [3] (60 min, solvent H2O), 141.3 ± 25.3%. Also, the “% contracture” value is reported as 0% in test [3] (15 min, solvent H2O); 2.8 ± 2.1% in test [3] (30 min, solvent H2O); 16.5 ± 9.5% in test [3] (60 min, solvent H2O).
